# Assay results: ChEMBL document CHEMBL1137051, “More potent linear peptide inhibitors of mammalian ribonucleotide reductase” (Bioorg Med Chem Lett, 2004)
# pIC50: −log10 of the molar value. Where a SMILES comes first, the peptide text is derived from it. [ ]: non-standard residue; d: D form. The star is where a group is joined. Fmoc = O=C(OCC1c2ccccc2-c2ccccc21)*; NMeF = CN[C@@H](Cc1ccccc1)C(=O)O; NMePhg = CN[C@H](C(=O)O)c1ccccc1; Cha = N[C@@H](CC1CCCCC1)C(=O)O
# Target: T1, Ribonucleoside-diphosphate reductase RR1 (Homo sapiens, UniProt P23921+Q7LG56+P31350)
# T1 sequence (P23921 whole entry): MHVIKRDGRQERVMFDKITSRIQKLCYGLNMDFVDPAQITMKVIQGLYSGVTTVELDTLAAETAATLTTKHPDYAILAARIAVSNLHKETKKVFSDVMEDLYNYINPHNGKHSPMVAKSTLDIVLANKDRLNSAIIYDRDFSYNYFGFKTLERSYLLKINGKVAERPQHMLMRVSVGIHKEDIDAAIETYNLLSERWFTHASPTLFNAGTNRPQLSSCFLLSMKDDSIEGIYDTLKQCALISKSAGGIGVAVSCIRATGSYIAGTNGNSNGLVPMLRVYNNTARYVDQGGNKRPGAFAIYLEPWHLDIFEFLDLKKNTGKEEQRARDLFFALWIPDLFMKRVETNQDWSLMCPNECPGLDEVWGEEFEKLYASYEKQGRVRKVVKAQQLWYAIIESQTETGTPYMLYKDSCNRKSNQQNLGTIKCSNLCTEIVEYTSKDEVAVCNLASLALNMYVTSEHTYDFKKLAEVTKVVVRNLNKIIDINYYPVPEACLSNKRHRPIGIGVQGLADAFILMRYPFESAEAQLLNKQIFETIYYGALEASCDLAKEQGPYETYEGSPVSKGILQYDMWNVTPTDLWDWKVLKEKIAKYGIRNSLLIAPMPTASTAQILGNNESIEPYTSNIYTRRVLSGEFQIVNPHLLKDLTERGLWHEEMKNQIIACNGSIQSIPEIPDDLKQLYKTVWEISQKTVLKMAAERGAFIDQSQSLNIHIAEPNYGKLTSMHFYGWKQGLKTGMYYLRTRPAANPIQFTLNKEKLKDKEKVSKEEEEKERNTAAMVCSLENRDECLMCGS
# T1 sequence (Q7LG56 whole entry): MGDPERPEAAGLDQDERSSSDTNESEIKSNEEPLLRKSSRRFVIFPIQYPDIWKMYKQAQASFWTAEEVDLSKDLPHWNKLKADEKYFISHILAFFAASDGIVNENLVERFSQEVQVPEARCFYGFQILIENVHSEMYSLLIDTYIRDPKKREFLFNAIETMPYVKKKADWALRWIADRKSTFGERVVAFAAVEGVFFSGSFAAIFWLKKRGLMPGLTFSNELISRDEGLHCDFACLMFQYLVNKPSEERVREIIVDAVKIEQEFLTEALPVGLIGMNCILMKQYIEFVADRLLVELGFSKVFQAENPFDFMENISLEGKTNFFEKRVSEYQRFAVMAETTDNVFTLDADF
# T1 sequence (P31350 whole entry): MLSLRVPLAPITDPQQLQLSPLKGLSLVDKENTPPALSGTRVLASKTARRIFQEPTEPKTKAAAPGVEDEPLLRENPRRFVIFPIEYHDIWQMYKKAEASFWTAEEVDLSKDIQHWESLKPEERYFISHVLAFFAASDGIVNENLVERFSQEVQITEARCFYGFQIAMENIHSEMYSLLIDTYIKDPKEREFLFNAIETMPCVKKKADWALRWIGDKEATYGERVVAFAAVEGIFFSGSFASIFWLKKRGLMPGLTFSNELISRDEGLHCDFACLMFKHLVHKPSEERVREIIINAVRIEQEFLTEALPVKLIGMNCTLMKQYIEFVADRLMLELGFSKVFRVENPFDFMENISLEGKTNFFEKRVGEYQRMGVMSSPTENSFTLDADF
# Test: (§1) Inhibition of mammalian ribonucleotide reductase in a standard dTTP-dependent GDP reductase assay
# Format: protein-complex assay
row,Compound,pIC50
1,CC(C)C[C@H](NC(=O)[C@H](Cc1ccccc1)N(C)C(=O)OCC1c2ccccc2-c2ccccc21)C(=O)N[C@@H](CC(=O)O)C(=O)N[C@@H](CC1CCCCC1)C(=O)N[C@@H](CC(=O)O)C(=O)N[C@@H](Cc1ccccc1)C(=O)O (Fmoc-[NMeF]LD[Cha]DF-OH),5.62
2,CC(C)C[C@H](NC(=O)[C@H](Cc1ccccc1)N(C)C(=O)OCC1c2ccccc2-c2ccccc21)C(=O)N[C@@H](CCC(=O)O)C(=O)N[C@@H](CC1CCCCC1)C(=O)N[C@@H](CC(=O)O)C(=O)N[C@@H](Cc1ccccc1)C(=O)O (Fmoc-[NMeF]LE[Cha]DF-OH),5.62

# Target: T2, Ribonucleoside-diphosphate reductase RR1 (Homo sapiens, UniProt P23921+P31350+Q7LG56)
# T2 sequence (P23921 whole entry): T1 sequence (P23921 whole entry)
# T2 sequence (Q7LG56 whole entry): T1 sequence (Q7LG56 whole entry)
# T2 sequence (P31350 whole entry): T1 sequence (P31350 whole entry)
# Test: as §1
# Format: protein-complex assay
row,Compound,pIC50
1,CC(C)[C@H](NC(=O)[C@H](Cc1c[nH]c2ccccc12)NC(=O)OCC1c2ccccc2-c2ccccc21)C(=O)N[C@@H](Cc1ccccc1)C(=O)N[C@@H](Cc1ccccc1)C(=O)O (Fmoc-WVFF-OH),4.70
2,CC(C)C[C@H](NC(=O)[C@H](c1ccccc1)N(C)C(=O)OCC1c2ccccc2-c2ccccc21)C(=O)N[C@@H](CC(=O)O)C(=O)N[C@@H](CC1CCCCC1)C(=O)N[C@@H](CC(=O)O)C(=O)N[C@@H](Cc1ccccc1)C(=O)O (Fmoc-[NMePhg]LD[Cha]DF-OH),5.72
3,Ac-FTLDADF-OH,4.88
4,O=C(O)C[C@H](NC(=O)[C@H](Cc1ccccc1)NC(=O)[C@H](Cc1c[nH]c2ccccc12)NC(=O)OCC1c2ccccc2-c2ccccc21)C(=O)N[C@@H](Cc1ccccc1)C(=O)O (Fmoc-WFDF-OH),4.66
